# What was measured:
# Assay type in all cases: in vivo
# canola (Brassica rapa) = assay: Test C pre-/postemergence plant response
# How it was run: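 Ratings ran from 0 (no effect) to 100 (complete control) and were made visually against untreated controls 15–25 days after treatment in a controlled growth environment. Application was preemergence and, for some chemicals, postemergence at the 1- to 4-leaf stage (2–18 cm). Formulation was a non-phytotoxic solvent mixture with surfactant.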
# [1] = system: southern (S.) sandbur (Cenchrus echinatus); assay: Test E pre-/postemergence plant response
# [2] = system: quackgrass (Elytrigia repens); assay: Test E pre-/postemergence plant response
# [3] = system: Virginia (V.) dayflower (Commelina virginica); assay: Test E pre-/postemergence plant response
# [4] = system: goosegrass (Eleusine indica); assay: Test E pre-/postemergence plant response
# [5] = system: common sowthistle (Sonchus oleraceous); assay: Test E pre-/postemergence plant response
# [6] = system: bermudagrass (Cynodon dactylon); assay: Test E pre-/postemergence plant response; settings: Postemergence, scale 0 to 100
# [7] = system: guineagrass (Panicum maximum); assay: Test E pre-/postemergence plant response
# [8] = system: blackgrass (Alopecurus myosuroides); assay: Test A pre-/postemergence plant response
# How it was run: (§1)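 Soil: loam blended with sand. Formulation: non-phytotoxic solvent mixture plus surfactant, applied as preemergence directed soil spray and as postemergence spray. Scoring: visual, 0 no effect to 100 complete control, roughly 10 days post-treatment in greenhouse.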
# [9] = system: canarygrass (Phalaris minor); assay: Test A pre-/postemergence plant response
# How it was run: as §1
# [10] = Postemergence, 8 g ai/ha, scale 0 to 100, 0 no effect, 100 complete control
# [11] = Postemergence, 16 g ai/ha, scale 0 to 100, 0 no effect, 100 complete control
# [12] = Postemergence, 31 g ai/ha, scale 0 to 100, 0 no effect, 100 complete control
# [13] = Postemergence, 62 g ai/ha, scale 0 to 100, 0 no effect, 100 complete control
# [14] = Preemergence, 8 g ai/ha, scale 0 to 100 (0 no effect, 100 complete control)
# [15] = Preemergence, 16 g ai/ha, scale 0 to 100 (0 no effect, 100 complete control)
# [16] = Preemergence, 31 g ai/ha, scale 0 to 100 (0 no effect, 100 complete control)
# [17] = Preemergence, 62 g ai/ha, scale 0 to 100, 0 no effect, 100 complete control
# [18] = Postemergence, 8 g ai/ha, scale 0 to 100
# [19] = Postemergence, 16 g ai/ha; scale 0 to 100
# [20] = Postemergence, 31 g ai/ha; scale 0 to 100
# [21] = Postemergence, 62 g ai/ha; scale 0 to 100
# [22] = 8 g ai/ha, Postemergence, scale 0 to 100
# [23] = Postemergence, 31 g ai/ha, 0 to 100 scale, 0 no effect, 100 complete control
# [24] = Postemergence, 125 g ai/ha, 0 to 100 scale, 0 no effect, 100 complete control
# [25] = Preemergence, 31 g ai/ha, 0 to 100 scale, 0 is no effect, 100 is complete control
# [26] = Preemergence, 125 g ai/ha, 0 to 100 scale (0 no effect, 100 complete control)
compound,measurement,setting,value
Cc1nn(C)c(=O)c(-n2nc(-c3ccc(Cl)cc3)cc2C)c1O [Compound 15],"Plant response rating, Canola",canola (Brassica rapa); [10],0
same,"Plant response rating, Canola",canola (Brassica rapa); [11],0
same,"Plant response rating, Canola",canola (Brassica rapa); [12],0
same,"Plant response rating, Canola",canola (Brassica rapa); [13],0
same,"Plant response rating, Canola",canola (Brassica rapa); [14],0
same,"Plant response rating, Canola",canola (Brassica rapa); [15],0
same,"Plant response rating, Canola",canola (Brassica rapa); [16],0
same,"Plant response rating, Canola",canola (Brassica rapa); [17],0
Cc1cc(-c2ccc(Cl)cc2)nn1-c1c(OC(=O)c2cccc(Cl)c2)cnn(C)c1=O [Compound 32],"Plant response rating, Sandbur, S.",[1]; [18],60
same,"Plant response rating, Sandbur, S.",[1]; [19],75
same,"Plant response rating, Sandbur, S.",[1]; [20],80
same,"Plant response rating, Sandbur, S.",[1]; [21],80
same,"Plant response rating, Quackgrass",[2]; [18],0
same,"Plant response rating, Quackgrass",[2]; [19],0
same,"Plant response rating, Quackgrass",[2]; [20],0
same,"Plant response rating, Quackgrass",[2]; [21],0
same,"Plant response rating, Dayflower, V.",[3]; [18],0
same,"Plant response rating, Dayflower, V.",[3]; [19],0
same,"Plant response rating, Dayflower, V.",[3]; [20],0
same,"Plant response rating, Dayflower, V.",[3]; [21],0
same,"Plant response rating, Goosegrass",[4]; [18],35
same,"Plant response rating, Goosegrass",[4]; [19],35
same,"Plant response rating, Goosegrass",[4]; [20],60
same,"Plant response rating, Goosegrass",[4]; [21],80
same,"Plant response rating, Sowthistle",[5]; [18],0
same,"Plant response rating, Sowthistle",[5]; [19],0
same,"Plant response rating, Sowthistle",[5]; [20],0
same,"Plant response rating, Sowthistle",[5]; [21],0
same,"Plant response rating, Bermudagrass",[6]; 8 g ai/ha,5
same,"Plant response rating, Bermudagrass",[6]; 16 g ai/ha,20
same,"Plant response rating, Bermudagrass",[6]; 31 g ai/ha,40
same,"Plant response rating, Bermudagrass",[6]; 62 g ai/ha,75
same,"Plant response rating, Guineagrass",[7]; [18],90
same,"Plant response rating, Guineagrass",[7]; [19],98
same,"Plant response rating, Guineagrass",[7]; [20],98
same,"Plant response rating, Guineagrass",[7]; [21],100
Cc1cc(-c2ccc(Cl)cc2)nn1-c1c(OC(=O)CC(C)C)cnn(C)c1=O [Compound 37],"Plant response rating, Canola",canola (Brassica rapa); [10],0
same,"Plant response rating, Canola",canola (Brassica rapa); [11],0
same,"Plant response rating, Canola",canola (Brassica rapa); [12],0
same,"Plant response rating, Canola",canola (Brassica rapa); [13],0
same,"Plant response rating, Canola",canola (Brassica rapa); [14],0
same,"Plant response rating, Canola",canola (Brassica rapa); [16],0
same,"Plant response rating, Canola",canola (Brassica rapa); [17],0
Cc1cc(-c2ccc(C(F)(F)F)c(F)c2)nn1-c1c(O)c(C(F)(F)F)nn(C)c1=O [Compound 44],"Plant response rating, Canola",canola (Brassica rapa); [10],0
same,"Plant response rating, Canola",canola (Brassica rapa); [11],0
same,"Plant response rating, Canola",canola (Brassica rapa); [12],0
same,"Plant response rating, Canola",canola (Brassica rapa); [13],0
same,"Plant response rating, Canola",canola (Brassica rapa); [14],0
same,"Plant response rating, Canola",canola (Brassica rapa); [15],0
same,"Plant response rating, Canola",canola (Brassica rapa); [16],0
same,"Plant response rating, Canola",canola (Brassica rapa); [17],0
Cc1cc(-c2ccc(Cl)cc2)nn1-c1c(OC(=O)Oc2ccccc2)cnn(C)c1=O [Compound 54],"Plant response rating, Sandbur, S.",[1]; [22],60
same,"Plant response rating, Sandbur, S.",[1]; [19],80
same,"Plant response rating, Sandbur, S.",[1]; [20],90
same,"Plant response rating, Sandbur, S.",[1]; [21],95
same,"Plant response rating, Quackgrass",[2]; [22],0
same,"Plant response rating, Quackgrass",[2]; [19],0
same,"Plant response rating, Quackgrass",[2]; [20],0
same,"Plant response rating, Quackgrass",[2]; [21],35
same,"Plant response rating, Dayflower, V.",[3]; [22],0
same,"Plant response rating, Dayflower, V.",[3]; [19],0
same,"Plant response rating, Dayflower, V.",[3]; [20],0
same,"Plant response rating, Dayflower, V.",[3]; [21],0
same,"Plant response rating, Goosegrass",[4]; [22],0
same,"Plant response rating, Goosegrass",[4]; [19],0
same,"Plant response rating, Goosegrass",[4]; [20],50
same,"Plant response rating, Goosegrass",[4]; [21],95
same,"Plant response rating, Sowthistle",[5]; [22],0
same,"Plant response rating, Sowthistle",[5]; [19],0
same,"Plant response rating, Sowthistle",[5]; [20],0
same,"Plant response rating, Sowthistle",[5]; [21],0
same,"Plant response rating, Bermudagrass",[6]; 8 g ai/ha,10
same,"Plant response rating, Bermudagrass",[6]; 16 g ai/ha,20
same,"Plant response rating, Bermudagrass",[6]; 31 g ai/ha,40
same,"Plant response rating, Bermudagrass",[6]; 62 g ai/ha,80
same,"Plant response rating, Guineagrass",[7]; [22],95
same,"Plant response rating, Guineagrass",[7]; [19],95
same,"Plant response rating, Guineagrass",[7]; [20],95
same,"Plant response rating, Guineagrass",[7]; [21],100
CCCc1cc(-c2ccc(C(F)(F)F)cc2)nn1-c1c(O)cnn(C)c1=O [Compound 72],"Plant response rating, Blackgrass",[8]; [23],80
same,"Plant response rating, Blackgrass",[8]; [24],100
same,"Plant response rating, Blackgrass",[8]; [25],70
same,"Plant response rating, Blackgrass",[8]; [26],100
same,"Plant response rating, Canarygrass",[9]; [23],40
same,"Plant response rating, Canarygrass",[9]; [24],100
same,"Plant response rating, Canarygrass",[9]; [25],50
same,"Plant response rating, Canarygrass",[9]; [26],80
CCc1cc(-c2ccc(Br)cc2)nn1-c1c(O)cnn(CC(F)(F)F)c1=O [Compound 73],"Plant response rating, Blackgrass",[8]; [23],90
same,"Plant response rating, Blackgrass",[8]; [24],90
same,"Plant response rating, Blackgrass",[8]; [25],60
same,"Plant response rating, Blackgrass",[8]; [26],90
same,"Plant response rating, Canarygrass",[9]; [23],20
same,"Plant response rating, Canarygrass",[9]; [24],100
same,"Plant response rating, Canarygrass",[9]; [25],30
